Results taken from US12286435B2, “Compound having benzo seven-membered ring structure, preparation method therefor, and use thereof” (BIONNA (BEIJING) MEDICAL TECHNOLOGY CO., LTD., priority 2019, dated 2025).
Values joined by “and” are separate entries in the source; they are usually repeats but may differ in a detail not shown here. Identical values can stand only once.

Columns and labels:
BRD4 BD1 protein = BRD4 BD1 protein (Homo sapiens (Human), UniProt O60885); assay: Fluorescence polarization binding affinity (Ki) with BRD4 BD1 protein; settings: fluorescence polarization; Ki calculated from IC50
BRD4 BD2 protein = BRD4 BD2 protein (Homo sapiens (Human), UniProt O60885); assay: Fluorescence polarization binding affinity (Ki) with BRD4 BD2 protein; design: BRD4 BD2 Ki: reference not given here; settings: fluorescence polarization; Ki calculated from IC50
[1] = system: multiple myeloma MM.1S cell line; assay: Cell viability (CCK-8), multiple myeloma MM.1S; format: cell-based; settings: MM.1S cells, 4 days, CCK-8, 50% inhibition of cell growth
Procedure: 3. Determination of cell viability of the compound
The sample to be tested was dissolved with 100% dimethyl sulfoxide to prepare a 20 mM stock solution of the compound, which was diluted with 100% dimethyl sulfoxide to the highest compound concentration required for the experiment (2.5 mM).
First, 145 uL of a complete cell culture medium was added to wells B1-G1 of a 96-well flat-bottomed tansparent cell culture plate, and 100 uL of the complete medium was added to wells B2-G12, respectively. Then, 5 uL of the 2.5 mM solution of the compound was added to wells B1-D1 and E1-G1 respectively, and then diluted gradiently by 3-folds to B12-D12 and E12-G12 in sequence. Finally, 50 uL of the solution of the cells to be tested was added to each well, with about 3000-5000 cells per well, and a total volume of 150 uL per well.
In the experiment, in addition to the tested compound, two other control groups were set up: 1) a control group adding the cells and the complete medium, but without adding the compound; 2) a control group adding the complete medium only, without adding the cells and the compound. The 96-well plate was placed in a 37° C. cell culture incubator containing 5% carbon dioxide for 4 days, added with 15 uL of a CCK-8 reagent per well, and then incubated at 37° C. for 2-4 hours. The 96-well plate was read on a TECAN microplate reader, and the absorbance value at 450 nm wavelength was taken.
The effect of different concentrations of the compound on cell viability was calculated by the following equation: [absorption value of the experimental group−absorption value of pure cell culture medium without the cells or the compound]/[absorption value of the control group with the tumor cells but no testing compound−absorption value of pure cell culture medium without the cell or the compound]×100%.
The above data were precessed by software, and the IC50 value was the concentration of the compound corresponding to the 50% inhibition rate of cell growth.
Based on the above test method of the compound on cell viability, a variety of […] cancer cell lines were tested, using multiple myeloma MM.1S, breast cancer MDA-MB-231 and leukemia MV4-11 cell lines as exemples. Using this test method, the IC50 values of partial compounds in the examples of the present invention measured in multiple myeloma MM.1S, breast cancer MDA-MB-231 cell lines and leukemia MV4-11 cell lines were shown in Table 2.

Row | SMILES | Ki (BRD4 BD1 protein) [nM] | Ki (BRD4 BD2 protein) | IC50 ([1]; Homo sapiens, MM1.S, 96 h) [nM] | IC50 [1] [nM] | BRD4 BD2 Ki (BRD4 BD2 protein)
1 | Cc1nnn2c1-c1ccc(-c3cnn(C)c3)cc1C(Nc1cccc(N(C)C)c1)CC2 (stereo not shown) [LB152, N^1,N^1-dimethyl-N^3-(1-methyl-9-(1-methyl-1H-pyrazol-4-yl)-6,7-dihydro-5H-benzo[c][1,2,3]triazolo[1,5-a]azepin-7-yl)benzene-1,3-diamine] | 75.5 | 16.7 nM | 26.2 | – | –
2 | Cc1nnn2c1-c1ccc(-c3cnn(C)c3)cc1C(Nc1ccccc1O)CC2 (stereo not shown) [LB170, 2-((1-methyl-9-(1-methyl-1H-pyrazol-4-yl)-6,7-dihydro-5H-benzo[c][1,2,3]triazolo[1,5-a]azepin-7-yl)amino)phenol] | 74.8 | 4.78 nM | 152 | – | –
3 | Cc1nnn2c1-c1ccc(-c3cnn(C)c3)cc1C(Nc1ccccc1C(=O)O)CC2 (stereo not shown) [LB173, 2-((1-methyl-9-(1-methyl-1H-pyrazol-4-yl)-6,7-dihydro-5H-benzo[c][1,2,3]triazolo[1,5-a]azepin-7-yl)amino)benzoic acid] | 179 | 32.1 nM | 1200 | – | –
4 | CNC(=O)c1cccc(NC2CCn3nnc(C)c3-c3ccc(-c4cnn(C)c4)cc32)c1 (stereo not shown) [LB181] | 132 | 14.5 nM | 168 | – | –
5 | Cc1nnn2c1-c1ccc(-c3cnn(C)c3)cc1C(Nc1ccccc1CC(=O)O)CC2 (stereo not shown) [LB185, 2-(2-((1-methyl-9-(1-methyl-1H-pyrazol-4-yl)-6,7-dihydro-5H-benzo[c][1,2,3]triazolo[1,5-a]azepin-7-yl)amino)phenyl)acetic acid] | 218 | 14.5 nM | 1620 | – | –
6 | CNC(=O)c1ccccc1NC1CCn2nnc(C)c2-c2ccc(-c3cnn(C)c3)cc21 (stereo not shown) [LB186] | 82.2 | 13.7 nM | 36.6 | – | –
7 | Cc1nnn2c1-c1ccc(-c3cnn(C)c3)cc1C(Nc1ccc(F)cc1F)CC2 (stereo not shown) [LC01, N-(2,4-difluorophenyl)-1-methyl-9-(1-methyl-1H-pyrazol-4-yl)-6,7-dihydro-5H-benzo[c][1,2,3]triazolo[1,5-a]azepin-7-amine] | 56 | 28.4 nM and 9.08 nM | 48.8 | – | –
8 | Cc1nnn2c1-c1ccc(-c3cnn(C)c3)cc1C(Nc1cccc(C#N)c1)CC2 (stereo not shown) [LC07, 3-((1-methyl-9-(1-methyl-1H-pyrazol-4-yl)-6,7-dihydro-5H-benzo[c][1,2,3]triazolo[1,5-a]azepin-7-yl)amino)benzonitrile] | 134 | 8.4 nM and 18.8 nM | 165 | – | –
9 | Cc1nnn2c1-c1ccc(-c3cnn(C)c3)cc1C(Nc1ccccc1CC#N)CC2 (stereo not shown) [LC09, 2-(2-((1-methyl-9-(1-methyl-1H-pyrazol-4-yl)-6,7-dihydro-5H-benzo[c][1,2,3]triazolo[1,5-a]azepin-7-yl)amino)phenyl)acetonitrile] | 15.5 | – | 39.3 | – | <Kd
10 | Cc1nnn2c1-c1ccc(-c3cnn(C)c3)cc1C(Nc1cccc(CC#N)c1)CC2 (stereo not shown) [LC20, 2-(3-((1-methyl-9-(1-methyl-1H-pyrazol-4-yl)-6,7-dihydro-5H-benzo[c][1,2,3]triazolo[1,5-a]azepin-7-yl)amino)phenyl)acetonitrile] | 59.6 | 15 nM | 25.3 | – | –
11 | Cc1nnn2c1-c1ccc(-c3cnn(C)c3)cc1C(Nc1ccccc1CN(C)C)CC2 (stereo not shown) [LC29, N-(2-((dimethylamino)methyl)phenyl)-1-methyl-9-(1-methyl-1H-pyrazol-4-yl)-6,7-dihydro-5H-benzo[c][1,2,3]triazolo[1,5-a]azepin-7-amine] | 19.4 | 7.6 nM | 12.2 | – | –
12 | Cc1nnn2c1-c1ccc(-c3cnn(C)c3)cc1C(Nc1cccc(CN(C)C)c1)CC2 (stereo not shown) [LC31, N-(3-((dimethylamino)methyl)phenyl)-1-methyl-9-(1-methyl-1H-pyrazol-4-yl)-6,7-dihydro-5H-benzo[c][1,2,3]triazolo[1,5-a]azepin-7-amine] | 92.6 | 20.9 nM | 27.9 | – | –
13 | Cc1nnn2c1-c1ccc(C3=CCNCC3)cc1C(Nc1cccc(OCCO)c1)CC2 (stereo not shown) [LC56, 2-(3-((1-methyl-9-(1,2,3,6-tetrahydropyridin-4-yl)-6,7-dihydro-5H-benzo[c][1,2,3]triazolo[1,5-a]azepin-7-yl)amino)phenoxy)ethan-1-ol 2,2,2-trifluoroacetate] | 1520 | 70.3 nM | 2890 | – | –
14 | Cc1nnn2c1-c1ccc(C3=CCNCC3)cc1C(Nc1cccc(Cl)c1)CC2 (stereo not shown) [LC79, N-(3-chlorophenyl)-1-methyl-9-(1,2,3,6-tetrahydropyridin-4-yl)-6,7-dihydro-5H-benzo[c][1,2,3]triazolo[1,5-a]azepin-7-amine 2,2,2-trifluoroacetate] | 639 | 34.2 nM | 936 | – | –
15 | Cc1nnn2c1-c1ccc(C3=CCNCC3)cc1C(Nc1cccc(O)c1)CC2 (stereo not shown) [LC97, 3-((1-methyl-9-(1,2,3,6-tetrahydropyridin-4-yl)-6,7-dihydro-5H-benzo[c][1,2,3]triazolo[1,5-a]azepin-7-yl)amino)phenol 2,2,2-trifluoroacetate] | 795 | 40.6 nM | 591 | – | –
16 | Cc1nnn2c1-c1ccc(C3=CCN(C)CC3)cc1C(Nc1cccc(Cl)c1)CC2 (stereo not shown) [LD07, N-(3-chlorophenyl)-1-methyl-9-(1-methyl-1,2,3,6-tetrahydropyridin-4-yl)-6,7-dihydro-5H-benzo[c][1,2,3]triazolo[1,5-a]azepin-7-amine 2,2,2-trifluoroacetate] | 770 | 33.1 nM | 146 | – | –
17 | CC(=O)N1CC=C(c2ccc3c(c2)C(Nc2ccc(Cl)cc2)CCn2nnc(C)c2-3)CC1 (stereo not shown) [LD19, 1-(4-(7-((4-chlorophenyl)amino)-1-methyl-6,7-dihydro-5H-benzo[c][1,2,3]triazolo[1,5-a]azepin-9-yl)-3,6-dihydropyridin-1(2H)-yl)ethan-1-one] | 38.7 | 9.67 nM | < 1 | – | –

Other lines, results leading:

Row | Ki (BRD4 BD1 protein) [nM] | Ki (BRD4 BD2 protein) | IC50 ([1]; Homo sapiens, MM1.S, 96 h) [nM] | IC50 [1] [nM] | BRD4 BD2 Ki (BRD4 BD2 protein) | SMILES
18 | 89.3 | 22.8 nM | 153 | – | – | CNC(=O)c1ccc(NC2CCn3nnc(C)c3-c3ccc(-c4cnn(C)c4)cc32)cc1 (stereo not shown) [LB128]
19 | 1040 | 203 nM | 961 | – | – | Cc1nnn2c1-c1ccc(-c3cnn(C)c3)cc1C(Nc1ccc(CN(C)C)cc1)CC2 (stereo not shown) [LB138, N-(4-((dimethylamino)methyl)phenyl)-1-methyl-9-(1-methyl-1H-pyrazol-4-yl)-6,7-dihydro-5H-benzo[c][1,2,3]triazolo[1,5-a]azepin-7-amine]
20 | 124 | 48.3 nM | 120 | – | – | Cc1nnn2c1-c1ccc(-c3cnn(C)c3)cc1C(Nc1ccc(CCN(C)C)cc1)CC2 (stereo not shown) [LB139, N-(4-(2-(dimethylamino)ethyl)phenyl)-1-methyl-9-(1-methyl-1H-pyrazol-4-yl)-6,7-dihydro-5H-benzo[c][1,2,3]triazolo[1,5-a]azepin-7-amine]
21 | 69 | 11.4 nM | – | 114 | – | CNC(=O)Cc1ccc(NC2CCn3nnc(C)c3-c3ccc(-c4cnn(C)c4)cc32)cc1 (stereo not shown) [LB142]
22 | 78.3 | 9.61 nM | 118 | – | – | Cc1nnn2c1-c1ccc(-c3cnn(C)c3)cc1C(Nc1ccc(O)cc1)CC2 (stereo not shown) [LB143, 4-((1-methyl-9-(1-methyl-1H-pyrazol-4-yl)-6,7-dihydro-5H-benzo[c][1,2,3]triazolo[1,5-a]azepin-7-yl)amino)phenol]
23 | 26.1 | 7.06 nM | 22.8 | 20.8 | – | Cc1nnn2c1-c1ccc(-c3cnn(C)c3)cc1C(Nc1cccc(O)c1)CC2 (stereo not shown) [LB171, 3-((1-methyl-9-(1-methyl-1H-pyrazol-4-yl)-6,7-dihydro-5H-benzo[c][1,2,3]triazolo[1,5-a]azepin-7-yl)amino)phenol]
24 | 32.9 | 1.33 nM and 4.03 nM | 59 | – | – | Cc1nnn2c1-c1ccc(-c3cnn(C)c3)cc1C(Nc1ccc(CC#N)cc1)CC2 (stereo not shown) [LC03, 2-(4-((1-methyl-9-(1-methyl-1H-pyrazol-4-yl)-6,7-dihydro-5H-benzo[c][1,2,3]triazolo[1,5-a]azepin-7-yl)amino)phenyl)acetonitrile]
25 | 34.6 | 15.2 nM | 4.7 | – | – | Cc1nnn2c1-c1ccc(-c3cnn(C)c3)cc1C(Nc1ccc(C#N)cc1)CC2 (stereo not shown) [LC18, 4-((1-methyl-9-(1-methyl-1H-pyrazol-4-yl)-6,7-dihydro-5H-benzo[c][1,2,3]triazolo[1,5-a]azepin-7-yl)amino)benzonitrile]
